Results taken from US20240398811A1, “PRC2 INHIBITORS FOR USE IN TREATING BLOOD DISORDERS” (ORIC Pharmaceuticals, Inc., priority 2021, published 2024).
pIC50: −log10 of the molar value.

Target: purified human, His-tagged PRC2 complex (Homo sapiens (Human), UniProt O75530)
Assay: Hot Spot HMT assay, inhibition of PRC2 enzymatic activity
Type: biochemical
Conditions: 10 nM PRC2 complex, 1 μM 3H-SAM, core histone H3, 10-point dose-response
Method in brief: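 Methyl transfer from 1 μM tritiated SAM onto 0.05 mg/ml core histone H3, catalysed by 10 nM His/Flag-tagged human PRC2 holoenzyme, was run 1 hr at 30° C after a 20 min compound preincubation. Serial dilutions began at 1.0 μM; product captured on filters and counted.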

Sequence of purified human, His-tagged PRC2 complex (O75530 whole entry): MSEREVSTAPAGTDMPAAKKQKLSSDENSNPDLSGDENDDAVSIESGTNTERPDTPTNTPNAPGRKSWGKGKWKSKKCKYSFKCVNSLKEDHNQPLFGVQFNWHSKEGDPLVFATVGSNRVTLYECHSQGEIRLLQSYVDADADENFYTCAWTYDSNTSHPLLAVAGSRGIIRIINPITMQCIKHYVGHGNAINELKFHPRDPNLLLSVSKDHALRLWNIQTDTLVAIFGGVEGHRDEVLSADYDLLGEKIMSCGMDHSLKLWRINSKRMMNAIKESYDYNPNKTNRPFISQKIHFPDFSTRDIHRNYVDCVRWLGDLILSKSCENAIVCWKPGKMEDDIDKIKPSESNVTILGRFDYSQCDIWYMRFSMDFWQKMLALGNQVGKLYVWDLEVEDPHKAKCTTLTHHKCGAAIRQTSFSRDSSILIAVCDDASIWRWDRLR
Sequence of purified human, His-tagged PRC2 complex (Q15910 whole entry partner): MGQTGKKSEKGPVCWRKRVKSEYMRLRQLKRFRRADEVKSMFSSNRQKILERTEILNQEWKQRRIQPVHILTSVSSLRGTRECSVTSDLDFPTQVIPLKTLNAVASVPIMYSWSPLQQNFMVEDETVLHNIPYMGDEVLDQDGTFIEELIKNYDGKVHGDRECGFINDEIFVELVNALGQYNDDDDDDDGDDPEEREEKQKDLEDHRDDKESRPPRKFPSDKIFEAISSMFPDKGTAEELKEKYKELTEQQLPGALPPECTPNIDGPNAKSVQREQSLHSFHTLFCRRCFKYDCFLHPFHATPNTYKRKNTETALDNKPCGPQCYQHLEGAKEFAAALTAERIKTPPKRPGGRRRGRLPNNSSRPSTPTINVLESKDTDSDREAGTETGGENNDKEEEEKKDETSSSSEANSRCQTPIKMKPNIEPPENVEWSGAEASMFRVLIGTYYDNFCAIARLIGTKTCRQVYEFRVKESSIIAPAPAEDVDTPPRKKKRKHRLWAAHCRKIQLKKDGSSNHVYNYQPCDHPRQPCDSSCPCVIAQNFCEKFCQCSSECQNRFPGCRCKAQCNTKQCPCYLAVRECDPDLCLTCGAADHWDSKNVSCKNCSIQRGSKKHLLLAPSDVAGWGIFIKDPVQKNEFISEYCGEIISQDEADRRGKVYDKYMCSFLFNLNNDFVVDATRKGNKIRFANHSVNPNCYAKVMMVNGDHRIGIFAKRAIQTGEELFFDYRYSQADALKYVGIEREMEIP
Sequence of purified human, His-tagged PRC2 complex (Q15022 whole entry partner): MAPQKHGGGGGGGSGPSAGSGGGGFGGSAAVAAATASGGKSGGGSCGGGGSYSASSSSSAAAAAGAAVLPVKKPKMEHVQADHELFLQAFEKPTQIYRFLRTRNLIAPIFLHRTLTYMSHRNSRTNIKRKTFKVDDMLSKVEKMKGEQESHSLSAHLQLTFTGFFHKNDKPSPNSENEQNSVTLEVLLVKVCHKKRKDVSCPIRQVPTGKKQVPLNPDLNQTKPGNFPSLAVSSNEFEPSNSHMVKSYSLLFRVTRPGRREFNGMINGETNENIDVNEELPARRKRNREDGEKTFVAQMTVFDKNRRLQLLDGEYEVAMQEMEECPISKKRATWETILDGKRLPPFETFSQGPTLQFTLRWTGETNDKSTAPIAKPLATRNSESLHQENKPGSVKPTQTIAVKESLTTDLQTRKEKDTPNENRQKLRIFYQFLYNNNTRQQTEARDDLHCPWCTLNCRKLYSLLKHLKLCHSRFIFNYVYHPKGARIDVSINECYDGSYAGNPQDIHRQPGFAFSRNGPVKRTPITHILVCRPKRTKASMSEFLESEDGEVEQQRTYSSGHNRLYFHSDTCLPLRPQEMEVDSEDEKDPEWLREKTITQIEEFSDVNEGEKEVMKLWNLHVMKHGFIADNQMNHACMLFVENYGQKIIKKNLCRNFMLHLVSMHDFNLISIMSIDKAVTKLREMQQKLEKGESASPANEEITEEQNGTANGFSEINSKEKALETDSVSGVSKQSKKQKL
Sequence of purified human, His-tagged PRC2 complex (Q6ZN18 whole entry partner): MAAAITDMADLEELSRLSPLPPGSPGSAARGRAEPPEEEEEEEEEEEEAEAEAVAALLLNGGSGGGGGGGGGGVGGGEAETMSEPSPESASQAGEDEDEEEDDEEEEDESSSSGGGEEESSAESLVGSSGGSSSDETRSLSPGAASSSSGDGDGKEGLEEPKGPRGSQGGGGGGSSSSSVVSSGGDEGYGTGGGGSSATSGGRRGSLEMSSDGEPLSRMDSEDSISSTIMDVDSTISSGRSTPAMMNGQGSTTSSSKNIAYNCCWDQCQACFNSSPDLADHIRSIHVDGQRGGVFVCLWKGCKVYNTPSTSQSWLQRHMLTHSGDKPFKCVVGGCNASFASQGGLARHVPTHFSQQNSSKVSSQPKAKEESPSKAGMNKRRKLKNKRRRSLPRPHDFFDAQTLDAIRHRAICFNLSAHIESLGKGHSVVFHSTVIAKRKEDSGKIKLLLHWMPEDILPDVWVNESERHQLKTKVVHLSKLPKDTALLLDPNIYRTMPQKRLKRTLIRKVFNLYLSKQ
Sequence of purified human, His-tagged PRC2 complex (Q09028 whole entry partner): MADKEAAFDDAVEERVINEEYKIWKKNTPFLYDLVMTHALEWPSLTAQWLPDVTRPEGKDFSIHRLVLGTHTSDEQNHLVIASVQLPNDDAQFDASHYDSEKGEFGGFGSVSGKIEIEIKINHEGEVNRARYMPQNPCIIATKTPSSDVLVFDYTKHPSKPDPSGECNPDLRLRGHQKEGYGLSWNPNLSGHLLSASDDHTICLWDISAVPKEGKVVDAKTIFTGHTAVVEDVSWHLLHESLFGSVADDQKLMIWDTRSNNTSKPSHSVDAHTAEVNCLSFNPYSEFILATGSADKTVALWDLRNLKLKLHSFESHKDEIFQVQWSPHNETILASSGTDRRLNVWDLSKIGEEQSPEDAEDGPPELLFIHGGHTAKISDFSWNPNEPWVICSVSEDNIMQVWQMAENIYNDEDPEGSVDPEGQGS

Compound | pIC50
N#Cc1cn2c(NCc3c(F)ccc4c3CCO4)ncc(-c3ccc([C@H]4CCCN4)cc3)c2n1 [Example 220, (R)-5-(((5-fluoro-2,3-dihydrobenzofuran-4-yl)methyl)amino)-8-(4-(pyrrolidin-2-yl)phenyl)imidazo[1,2-c]pyrimidine-2-carbonitrile] | 6.30 to 7.00
CN1CCC1c1ccc(-c2cnc(NCc3c(F)ccc4c3CCO4)n3cc(C#N)nc23)cc1 (stereo not shown) [Example 221, 5-(((5-fluoro-2,3-dihydrobenzofuran-4-yl)methyl)amino)-8-(4-(1-methylazetidin-2-yl)phenyl)imidazo[1,2-c]pyrimidine-2-carbonitrile] | > 7.00
N#Cc1cn2c(NCc3c(F)ccc4c3CCO4)ncc(-c3ccc(C4CC(=O)N4)cc3)c2n1 (stereo not shown) [Example 222, 5-(((5-fluoro-2,3-dihydrobenzofuran-4-yl)methyl)amino)-8-(4-(4-oxoazetidin-2-yl)phenyl)imidazo[1,2-c]pyrimidine-2-carbonitrile] | > 7.00
[2H]C1Oc2ccc(F)c(C([2H])([2H])Nc3ncc(-c4ccc(CN(C)C)cc4C)c4nc(C#N)cn34)c2C1[2H] (stereo not shown) [Example 223, 8-(4-((dimethylamino)methyl)-2-methylphenyl)-5-(((5-fluoro-2,3-dihydrobenzofuran-4-yl-2,3-d2)methyl-d2)amino)imidazo[1,2-c]pyrimidine-2-carbonitrile] | > 7.00
Cn1cc(-c2cnc(NCc3c(F)ccc4c3CCO4)n3cc(C#N)nc23)c(C#N)n1 [Example 224, 8-(3-cyano-1-methyl-1H-pyrazol-4-yl)-5-(((5-fluoro-2,3-dihydrobenzofuran-4-yl)methyl)amino)imidazo[1,2-c]pyrimidine-2-carbonitrile] | 6.30 to 7.00
N#Cc1cn2c(NCc3c(F)ccc4c3CCO4)ncc(-c3ccc(C4COCCN4)cc3)c2n1 (stereo not shown) [Example 225, 5-(((5-fluoro-2,3-dihydrobenzofuran-4-yl)methyl)amino)-8-(4-(morpholin-3-yl)phenyl)imidazo[1,2-c]pyrimidine-2-carbonitrile] | > 7.00
N#Cc1cn2c(NCc3c(F)ccc4c3CCO4)ncc(-c3ccc(C4CCN4)cc3)c2n1 (stereo not shown) [Example 226, 8-(4-(azetidin-2-yl)phenyl)-5-(((5-fluoro-2,3-dihydrobenzofuran-4-yl)methyl)amino)imidazo[1,2-c]pyrimidine-2-carbonitrile] | 6.30 to 7.00
CN1CCOCC1c1ccc(-c2cnc(NCc3c(F)ccc4c3CCO4)n3cc(C#N)nc23)cc1 (stereo not shown) [Example 227, 5-(((5-fluoro-2,3-dihydrobenzofuran-4-yl)methyl)amino)-8-(4-(4-methylmorpholin-3-yl)phenyl)imidazo[1,2-c]pyrimidine-2-carbonitrile] | > 7.00
CN1CCN(C(=O)c2cc(-c3cnc(NCc4c(F)ccc5c4CCO5)n4cc(C#N)nc34)n(C)n2)CC1 [Example 229, 5-(((5-fluoro-2,3-dihydrobenzofuran-4-yl)methyl)amino)-8-(1-methyl-3-(4-methylpiperazine-1-carbonyl)-1H-pyrazol-5-yl)imidazo[1,2-c]pyrimidine-2-carbonitrile] | > 7.00
CN(C)CCn1nccc1-c1cnc(NCc2c(F)ccc3c2CCO3)n2cc(C#N)nc12 [Example 230, 8-(1-(2-(dimethylamino)ethyl)-1H-pyrazol-5-yl)-5-(((5-fluoro-2,3-dihydrobenzofuran-4-yl)methyl)amino)imidazo[1,2-c]pyrimidine-2-carbonitrile] | > 7.00
N#Cc1cn2c(NCc3c(F)ccc4c3CCO4)ncc(-c3ccnn3CCO)c2n1 [Example 231, 5-(((5-fluoro-2,3-dihydrobenzofuran-4-yl)methyl)amino)-8-(1-(2-hydroxyethyl)-1H-pyrazol-5-yl)imidazo[1,2-c]pyrimidine-2-carbonitrile] | 6.30 to 7.00
N#Cc1cn2c(NCc3c(F)ccc4c3CCO4)ncc(-c3n[nH]cc3Br)c2n1 [Example 232, 8-(4-bromo-1H-pyrazol-3-yl)-5-(((5-fluoro-2,3-dihydrobenzofuran-4-yl)methyl)amino)imidazo[1,2c]pyrimidine-2-carbonitrile] | 6.30 to 7.00
Cc1c(-c2cnc(NCc3c(F)ccc4c3CCO4)n3cc(C#N)nc23)cnc(CN(C)C)c1F [Example 233, 8-(6-((dimethylamino)methyl)-5-fluoro-4-methylpyridin-3-yl)-5-(((5-fluoro-2,3-dihydrobenzofuran-4-yl)methyl)amino)imidazo[1,2-c]pyrimidine-2-carbonitrile] | > 7.00

Second part, the molecule after the results:

pIC50 | Compound
> 7.00 | CNC(=O)c1cc(-c2cnc(NCc3c(F)ccc4c3CCO4)n3cc(C#N)nc23)n(C)n1 [Example 208, 5-(2-cyano-5-(((5-fluoro-2,3-dihydrobenzofuran-4-yl)methyl)amino)imidazo[1,2-c]pyrimidin-8-yl)-N,1-dimethyl-1H-pyrazole-3-carboxamide]
> 7.00 | CN(C)Cc1cc(-c2cnc(NCc3c(F)ccc4c3CCO4)n3cc(C#N)nc23)n(C)n1 [Example 210, 8-(3-((dimethylamino)methyl)-1-methyl-1H-pyrazol-5-yl)-5-(((5-fluoro-2,3-dihydrobenzofuran-4-yl)methyl)amino)imidazo[1,2-c]pyrimidine-2-carbonitrile]
> 7.00 | CNCc1cc(-c2cnc(NCc3c(F)ccc4c3CCO4)n3cc(C#N)nc23)n(C)n1 [Example 211, 5-(((5-fluoro-2,3-dihydrobenzofuran-4-yl)methyl)amino)-8-(1-methyl-3-((methylamino)methyl)-1H-pyrazol-5-yl)imidazo[1,2-c]pyrimidine-2-carbonitrile]
> 7.00 | Cn1nc(C#N)cc1-c1cnc(NCc2c(F)ccc3c2CCO3)n2cc(C#N)nc12 [Example 212, 8-(3-cyano-1-methyl-1H-pyrazol-5-yl)-5-(((5-fluoro-2,3-dihydrobenzofuran-4-yl)methyl)amino)imidazo[1,2-c]pyrimidine-2-carbonitrile]
> 7.00 | N#Cc1cn2c(NCc3c(F)ccc4c3CCO4)ncc(-c3ccc(C(=O)O)nc3)c2n1 [Example 215, 5-(2-cyano-5-(((5-fluoro-2,3-dihydrobenzofuran-4-yl)methyl)amino)imidazo[1,2-c]pyrimidin-8-yl)picolinic Acid]
> 7.00 | CN(C)Cc1ncc(-c2cnc(NCc3c(F)ccc4c3CCO4)n3cc(C#N)nc23)cn1 [Example 216, 8-(2-((dimethylamino)methyl)pyrimidin-5-yl)-5-(((5-fluoro-2,3-dihydrobenzofuran-4-yl)methyl)amino)imidazo[1,2-c]pyrimidine-2-carbonitrile]
> 7.00 | CN(C)CCc1cccc(-c2cnc(NCc3c(F)ccc4c3CCO4)n3cc(C#N)nc23)c1 [Example 217, 8-(3-(2-(dimethylamino)ethyl)phenyl)-5-(((5-fluoro-2,3-dihydrobenzofuran-4-yl)methyl)amino)imidazo[1,2-c]pyrimidine-2-carbonitrile]
> 7.00 | N#Cc1cn2c(NCc3c(F)ccc4c3CCO4)ncc(-c3cc[nH]c(=O)c3)c2n1 [Example 218, 5-(((5-fluoro-2,3-dihydrobenzofuran-4-yl)methyl)amino)-8-(2-oxo-1,2-dihydropyridin-4-yl)imidazo[1,2-c]pyrimidine-2-carbonitrile]
> 7.00 | N#Cc1cn2c(NCc3c(F)ccc4c3CCO4)ncc(-c3ccc([C@@H]4CCCN4)cc3)c2n1 [Example 219, (S)-5-(((5-fluoro-2,3-dihydrobenzofuran-4-yl)methyl)amino)-8-(4-(pyrrolidin-2-yl)phenyl)imidazo[1,2-c]pyrimidine-2-carbonitrile]
